# Laboratory results taken from US9307767B2, “Herbicidally and insecticidally active thiazolopyridinones” (BAYER INTELLECTUAL PROPERTY GMBH, priority 2012, dated 2016).
# Where “and” joins values, the source holds several entries; their conditions need not be identical. Equal entries are not always repeated.
# Columns and labels:
# Type in all cases: in vivo
# Setaria viridis = assay: Pre-emergence herbicidal action against weed plants; conditions: application rate 1280 g/ha, visual assessment after 3 weeks
# Text: (§1) Seeds of monocotyledonous and dicotyledonous weed plants and crop plants are placed in wood-fiber pots in sandy loam and covered with soil. The compounds according to the invention, formulated in the form of wettable powders (WP) or as emulsion concentrates (EC), are then applied as aqueous suspension or emulsion at a water application rate of 600 to 800 l/ha (converted) with the addition of 0.2% of wetting agent to the surface of the covering soil. After the treatment, the pots are placed in a greenhouse and kept under good growth conditions for the test plants. The damage to the test plants is assessed visually after a test period of 3 weeks by comparison with untreated controls (herbicidal activity in percent (%): 100% action=the plants have died, 0% action=like control plants). […] The compounds Nos. I-a-38 and I-a-39 each show, at an application rate of 1280 g/ha, an of at least 80% against Echinochloa crus galli and Veronica persica and at the same time no damage in corn and oilseed rape.
# Lolium multiflorum [1] = assay: as above; conditions: application rate 1280 g/ha, visual assessment after 3 weeks
# Text: as §1
# corn [2] = assay: Post-emergence test, damage to crop plants; conditions: after about 3 weeks
# Description: (§2) Seeds of monocotyledonous and dicotyledonous weed and crop plants are placed in sandy loam in wood-fiber pots, covered with soil and cultivated in a greenhouse under good growth conditions. 2 to 3 weeks after sowing, the test plants are treated at the one-leaf stage. The compounds according to the invention, formulated in the form of wettable powders (WP) or as emulsion concentrates (EC), are then sprayed as aqueous suspension or emulsion at a water application rate of 600 to 800 l/ha (converted) with the addition of 0.2% of wetting agent onto the green parts of the plants. After the test plants have been left to stand in the greenhouse under optimal growth conditions for about 3 weeks, the action of the formulations is assessed visually in comparison to untreated controls (herbicidal action in percent (%): 100% activity=the plants have died, 0% activity=like control plants). Here, the compounds Nos. I-a-39 and I-a-42, for example, show, at an application rate of 320 g/ha, an activity of at least 80% against Setaria viridis and at the same time no damage in corn and oilseed rape.
# wheat [3] = assay: Post-emergence test, damage to crop plants; conditions: application rate 80 g/ha, after about 3 weeks
# Description: as §2
# oilseed rape [4] = assay: Post-emergence test, damage to crop plants; conditions: application rate 320 g/ha, after about 3 weeks
# Description: as §2
# rice [5] = assay: Post-emergence test, damage to crop plants; conditions: after about 3 weeks
# Description: as §2
# wheat [6] = assay: Pre-emergence test, damage to crop plants; conditions: application rate 1280 g/ha, after 3 weeks
# Text: as §1
# Cyperus serotinus = assay: Pre-emergence herbicidal action against weed plants; conditions: application rate 1280 g/ha, visual assessment after 3 weeks
# Text: as §1
# Alopecurus myosuroides = assay: as above; conditions: application rate 1280 g/ha, visual assessment after 3 weeks
# Text: as §1
# rice [7] = assay: Pre-emergence test, damage to crop plants; conditions: application rate 1280 g/ha, after 3 weeks
# Text: as §1
# [8] = system: larvae of the mustard beetle (Phaedon cochleariae); assay: Phaedon test (PHAECO spray treatment); conditions: application rate 500 g/ha, Chinese cabbage leaf discs sprayed, after 7 days
# Description: • Solvent: 78.0 parts by weight of acetone • 1.5 parts by weight of dimethylformamide • Emulsifier: 0.5 part by weight of alkylaryl polyglycol ether
# To produce a suitable preparation of active compound, 1 part by weight of active compound is mixed with the stated amounts of solvent and emulsifier, and the concentrate is diluted with emulsifier-containing water to the desired concentration. Discs of Chinese cabbage leaves (Brassica pekinensis) are sprayed with an active compound formulation of the desired concentration and, after drying, populated with larvae of the mustard beetle (Phaedon cochleariae). After 7 days, the activity in % is determined. 100% means that all of the beetle larvae have been killed; 0% means that none of the beetle larvae have been killed. In this test, for example, the following compounds of the Preparation Examples show, at an application rate of 500 g/ha, an activity of 100%: I-a-29, I-a-40.
# Polygonum convolvulus = assay: Pre-emergence herbicidal action against weed plants; conditions: application rate 1280 g/ha, visual assessment after 3 weeks
# Text: as §1
# corn [9] = assay: Pre-emergence test, damage to crop plants; conditions: application rate 1280 g/ha, after 3 weeks
# Text: as §1
# oilseed rape [10] = assay: Pre-emergence test, damage to crop plants; conditions: application rate 1280 g/ha, after 3 weeks
# Text: as §1
# [11] = system: greenhouse red spider mite (Tetranychus urticae); assay: Tetranychus test, OP-resistant (TETRUR spray treatment); conditions: application rate 500 g/ha, bean leaf discs sprayed, after 6 days
# Description: (§3) • Solvent: 78.0 parts by weight of acetone • 1.5 parts by weight of dimethylformamide • Emulsifier: 0.5 parts by weight of alkylaryl polyglycol ether
# To produce a suitable preparation of active compound, 1 part by weight of active compound is mixed with the stated amounts of solvent and emulsifier, and the concentrate is diluted with emulsifier-containing water to the desired concentration. Discs of bean leaves (Phaseolus vulgaris) infested by all stages of the greenhouse red spider mite (Tetranychus urticae) are sprayed with an active compound formulation of the desired concentration. After 6 days, the activity in % is determined. 100% means that all of the spider mites have been killed; 0% means that none of the spider mites have been killed.
# [12] = system: caterpillars of the armyworm (Spodoptera frugiperda); assay: Spodoptera frugiperda test (SPODFR spray treatment); conditions: application rate 500 g/ha, corn leaf disks sprayed, after 7 days
# Description: as §3
# To produce a suitable preparation of active compound, 1 part by weight of active compound is mixed with the stated amounts of solvent and emulsifier, and the concentrate is diluted with emulsifier-containing water to the desired concentration. Disks of corn leaves (Zea mays) are sprayed with an active compound preparation of the desired concentration and, after drying, populated with caterpillars of the armyworm (Spodoptera frugiperda). After 7 days, the activity in % is determined. 100% means that all of the caterpillars have been killed; 0% means that none of the caterpillars have been killed. In this test, for example, the following compounds of the Preparation Examples show, at an application rate of 500 g/ha, an activity of 85%: […], I-a-40. In this test, for example, the following compounds of the Preparation Examples show, at an application rate of 500 g/ha, an activity of 100%: I-a-38, I-a-39.
# Lolium multiflorum [13] = assay: Post-emergence herbicidal action against weed plants; conditions: application rate 320 g/ha, visual assessment after about 3 weeks
# Description: as §2
compound,measurement,setting,value
"6-(4′-chloro-4-methylbiphenyl-3-yl)-5-oxo-4-(prop-2-yn-1-yl)-4,5-dihydro[1,3]thiazolo[4,5]pyridin-7-yl 2-methylpropanoate [I-a-42]",herbicidal activity against Setaria viridis,Setaria viridis,at least 80%
same,herbicidal activity against Lolium multiflorum,Lolium multiflorum [1],at least 80%
same,damage in corn,corn [2]; application rate 80 g/ha,no damage
same,damage in corn,corn [2]; application rate 320 g/ha,no damage
same,damage in wheat,wheat [3],no damage
same,damage in oilseed rape,oilseed rape [4],no damage
same,damage in rice,rice [5]; application rate 80 g/ha,no damage
same,damage in wheat,wheat [6],no damage
Cn1c(=O)c(-c2c(F)ccc(-c3ccc(Cl)cc3Cl)c2Cl)c(O)c2scnc21 [I-a-19],herbicidal activity against Cyperus serotinus,Cyperus serotinus,at least 80%
same,herbicidal activity against Alopecurus myosuroides,Alopecurus myosuroides,at least 80%
same,damage in wheat,wheat [6],no damage
same,damage in rice,rice [7],no damage
C#CCn1c(=O)c(-c2c(Cl)cc(-c3ccc(Cl)cc3)cc2CC)c(O)c2scnc21 [I-a-29],activity in % (beetle larvae killed),[8],100%
O=c1c(-c2ccc(-c3ccc(Cl)cc3)cc2Cl)c(OCC(F)F)c2scnc2n1CC(F)F [I-a-32],herbicidal activity against Polygonum convolvulus,Polygonum convolvulus,at least 80%
same,damage in corn,corn [9],no damage
same,damage in oilseed rape,oilseed rape [10],no damage
C#CCn1c(=O)c(-c2cc(-c3ccc(Cl)cc3)ccc2Cl)c(O)c2scnc21 [I-a-37],activity in % (spider mites killed),[11],85% and 90%
Cc1ccc(-c2ccc(Cl)cc2)cc1-c1c(O)c2scnc2n(C)c1=O [I-a-38],activity in % (caterpillars killed),[12],85% and 100%
same,activity in % (spider mites killed),[11],85%
same,herbicidal activity against Lolium multiflorum,Lolium multiflorum [13],at least 80%
same,damage in corn,corn [2]; application rate 320 g/ha,no damage
same,damage in rice,rice [5]; application rate 320 g/ha,no damage
same,damage in corn,corn [9],no damage
same,damage in oilseed rape,oilseed rape [10],no damage
Cc1ccc(-c2ccc(Cl)cc2)cc1-c1c(O)c2scnc2n(CC(F)F)c1=O [I-a-39],activity in % (caterpillars killed),[12],85% and 100%
same,activity in % (spider mites killed),[11],85% and 90%
same,damage in corn,corn [2]; application rate 320 g/ha,no damage
same,damage in oilseed rape,oilseed rape [4],no damage
same,damage in corn,corn [9],no damage
same,damage in oilseed rape,oilseed rape [10],no damage
"C#CCn1c(=O)c(-c2cc(-c3ccc(Cl)cc3)ccc2C)c(O)c2scnc21 [I-a-40, 6-(4′-chloro-4-methylbiphenyl-3-yl)-7-hydroxy-4-(prop-2-yn-1-yl)[1,3]thiazolo[4,5-b]pyridin-5(4H)-one]",activity in % (caterpillars killed),[12],85%
same,activity in % (beetle larvae killed),[8],100%
